Laboratory results: publication PMC11926788, “Effect of SSR504734, a Selective Glycine Transporter Type 1 Inhibitor, on Seizure Thresholds, Neurotransmitter Levels, and Inflammatory Markers in Mice” (ACS Chemical Neuroscience, 2025)
Structures can show the parent of a compound that is named as a salt.

Legend:
[1] = Grip strength test (neuromuscular strength); format: in vivo, mice
Description: The effect of SSR504734 on neuromuscular strength was determined using the grip-strength apparatus (BioSeb, Chaville, France). The apparatus consists of a steel wire grid of 8 × 8 cm, connected to an isometric force transducer. Each mouse was held by the tail, allowing it to grasp the grid with its forepaws only and steadily pulled back until it released the grid. The maximum grip strength value (in newtons; N) was measured three times for each animal. The mean force was normalized to body weight and expressed in mN/g ± SD for each experimental group. In order to minimize the number of animals used, a grip-strength test was carried out shortly before seizure tests.
Table S2. Time-course effect of SSR5504734 on neuromuscular strength and motor […]
Group Neuromuscular strength Impairment of motor
SSR504734 was dissolved in normal saline and injected i.p. at the dose of 30 mg/kg. Control animals received saline. The data are expressed as the mean ± SD of grip strengths measured in millinewtons per gram of mouse body weight (mN/g) from the grip-strength test assessing […]
coordination impairment in the chimney test. Each experimental group consisted of 12 animals. The grip-strength test results were analyzed using a one-way ANOVA with Dunnett’s post hoc test, while the data from the chimney test were statistically evaluated using Fisher’s exact probability test. *p<0.05 vs. control group.
Table S3. Effect of acute and 14-day treatment with SSR504734 on neuromuscular strength and motor coordination in mice
In acute studies, SSR504734 and sodium valproate (VPA; positive control) were injected i.p.
60 and 15 min before the test, respectively. In subchronic studies, SSR504734 and VPA were injected i.p. every 24 h for 14 days. The last administration was made 60 and 15 min before the tests, respectively. Control animals received saline. Each experimental group consisted of 12 animals. The grip-strength test results were analyzed using a one-way ANOVA with […]
Fisher’s exact probability test.

[2] = Neurotoxicity, SH-SY5Y cell viability; format: cell-based; conditions: human, neuroblastoma SH-SY5Y cells; 50 μM, 72 h
Description: (§1) A series of in vitro ADME-Tox tests were performed for SSR504734 in order to estimate its drugability. The ADME-Tox parameters including permeability, plasma protein binding, metabolic stability, neurotoxicity, and hepatotoxicity were carried out as described previously.[31],[32] The ability of SSR504734 to penetrate through the biological membrane by passive diffusion was estimated by the Gentest Precoated PAMPA Plate System (Corning, Tewksbury, MA) and expressed as the permeability coefficient (Pe). The protein binding analysis was performed by using the commercial TRANSIL^XL PPB test, which mimics in vitro physiological plasma conditions where human serum albumin (HAS) and alpha-1-acid glycoprotein AGP are present in a 24:1 ratio. The human metabolism of SSR504734 was studied using human liver microsomes (HLMs) provided by Sigma-Aldrich. The hepatotoxicity and neurotoxicity were estimated in cellular models with the use of hepatoma HepG2 and neuroblastoma SH-SY5Y cell lines to perform the preliminary safety tests. The cells were incubated with SSR504734 at the concentration range of 0.1–100 μM. 1 μM cytostatic drug doxorubicin (DX) was used as the reference.
(§2) Figure 8 Effect of cytostatic drug doxorubicin (DX) and SSR504734 on (A) hepatoma HepG2 and (B) neuroblastoma SH-SY5Y cell lines viability after 72 h of incubation at 37 °C, 5% CO2. Data are expressed as means ± SD. Statistical analysis: ****p < 0.0001 vs negative control −1% DMSO in growth media (one-way ANOVA, followed by Dunnett’s post hoc test).
(§3) Figure S8. The effect of cytostatic drug doxorubicin and SSR504734 on (A) hepatoma
(§4) HepG2 and (B) neuroblastoma SH-SY5Y cell line viability after 72 h of incubation at 37 °C,
(§5) 5% CO2. The IC50 values were calculated by GraphPad Prism 8.0.
(§6) (1 picture or pasted object on this page, not shown here)

[3] = test system: neuroblastoma SH-SY5Y cells; experiment: Neurotoxicity, SH-SY5Y cell viability; format: cell-based
Description: as §1, §2, §3, §4, §5, §6

[4] = PAMPA (Gentest Precoated PAMPA Plate System); format: in vitro ADME; conditions: ± SD
Description: as §1

[5] = test system: hepatoma HepG2 cells; experiment: Hepatotoxicity, HepG2 cell viability; format: cell-based
Description: as §1, §2, §3, §4, §5, §6

[6] = test system: inflammatory markers in liver homogenates; experiment: Inflammatory markers in liver (ELISA); format: in vivo, mice; conditions: 14-day administration, 30 mg/kg i.p.
Description: Samples of liver tissue were homogenized with a protease inhibitor solution (0.4 M NaCl, 0.05% Tween 20, 0.5% bovine serum albumin, 0.1 mM phenylmethylsulfonylfluoride, 0.1 mM benzethonium chloride, 10 mM EDTA, and 10 μg/mL aprotinin). Homogenates were centrifuged at 12,000 rpm at 4 °C, and supernatant fluids were collected and stored at −80 °C until analysis. The entire procedure was described by Zhao et al.[29]
ELISA kits were used to determine IL-1-β, IL-6, IL-10, TNF-α, and IFN-γ (EIAAB Science INC, Wuhan, Hubei, China, nos. E0563m, E0079m, E0056m, E0049m, E0133m, E0753m) and IL-18 (Biorbyt Ltd., Cambridge, United Kingdom, no. orb437211) in the liver homogenates and serum. All assays were performed according to the producer’s instructions. All samples were tested in triplicate.

## O=C(NC(c1ccccc1)C1CCCCN1)c1cccc(C(F)(F)F)c1Cl [SSR504734, 2-chloro-N-[(S)-phenyl[(2S)-piperidin-2-yl]methyl]-3-trifluoromethyl benzamide monohydrochloride]
[1]; 30 mg/kg i.p., 30 min
  Neuromuscular strength: 30.33 ± 5.38 mN/g
[1]; 30 mg/kg i.p., 60 min
  Neuromuscular strength: 33.63± 4.94 mN/g
[1]; 30 mg/kg i.p., 120 min
  Neuromuscular strength: 33.49 ± 3.76 mN/g
[1]; 30 mg/kg i.p., 240 min
  Neuromuscular strength: 32.13 ± 3.42 mN/g
[1]; 14-day treatment, 3 mg/kg i.p.
  Neuromuscular strength: 25.02 ± 5.35 mN/kg
[1]; 14-day treatment, 10 mg/kg i.p.
  Neuromuscular strength: 23.48 ± 5.98 mN/kg
[1]; 14-day treatment, 30 mg/kg i.p.
  Neuromuscular strength: 27.76 ± 6.00 mN/kg
[1]; acute treatment, 10 mg/kg i.p.
  Neuromuscular strength: 31.15 ± 5.55 mN/kg
[1]; acute treatment, 30 mg/kg i.p.
  Neuromuscular strength: 31.00 ± 9.46 mN/kg
[1]; acute treatment, 50 mg/kg i.p.
  Neuromuscular strength: 30.31 ± 5.08 mN/kg
[2]
  viability at 72 h, 50 µM: ~30%
[3]; 72 h
  completely safe dose in the SH-SY5Y model: 25 µM
[3]; Homo sapiens, SH-SY5Y, 72 h of incubation
  IC50: 38.1 µM
[4]; PAMPA, read-out: PAMPA Pe
  Papp: 14.8 ± 1.49 ×10⁻⁶ cm/s
[4]
  PAMPA Pe: 14.80 10^–6 cm/s
[5]; 25 μM and higher concentrations, 72 h
  HepG2 cell viability: significant decrease
[5]; Homo sapiens, HepG2, 72 h of incubation
  IC50: 14.8 µM
[5]; concentration range of 1–10 μM, 72 h
  hepatotoxic properties (HepG2 viability): did not exhibit hepatotoxic properties
[6]
  level of inflammatory markers in liver samples: No statistically significant changes
